What all share (assay type): in vivo, rat
Test [1] has as its system Sprague-Dawley rats. In words: Gastric emptying of a test meal in rats. How it is done: Rats were fasted overnight (16-18 hours) with free access to water. The next morning, compound was administered and animals were individually housed in bedding-free cages with pre-weighed food available ad libitum and access to water for 2 hours. The water and food were then removed and the remaining food was re-weighed. Gastric emptying of the ingested meal was assessed 4 hours later. Animals were euthanized by CO2 inhalation followed by thoracotomy. The abdominal cavity was opened, the pylorus and cardia were clamped and the stomach was removed. The excised stomach was weighed and then opened along the greater curvature, rinsed with tap water, lightly dried and re-weighed. The amount of food in the stomach (grams) was estimated based on the difference between the total weight of the stomach plus its contents and the weight of the stomach after the contents were removed. The meal ingested (food intake) was determined by the difference between pre- and post-feeding weight at the end of the 2 hour period. Gastric emptying during the 4 hour experiment is represented as: Gastric emptying=[1−(gastric content/food intake)]×100. Gastric Secretion
Male, Sprague-Dawley rats (weighing between 229-264 g each and 4 rats per test group) were fasted overnight (19 hours). The rats were then orally administered 10 mg/kg, 30 mg/kg or 100 mg/kg of Compound A with a 0.5% MC or Capryol:Solutol:Polyethyleneglycol (CSP) vehicle or with a 0.5% MC or CSP vehicle alone. The rats were then placed in individual, bedding-free cages and allowed ad libitium access to pre-weighed food and water for two hours. The food and water were then removed and the food was reweighed. Gastric emptying was then assessed four hours later by euthanizing the rats and analyzing the stomach and stomach contents. […] Data are represented as the means+the standard error of the means (S.E.M). % Gastric Emptying in 4 hours=(1−(gastric content/food intake))×100. […] Data are represented as the means+S.E.M.
Male, Sprague-Dawley rats (weighing between 235-268 g each and 4-6 rats per test group) were fasted overnight (19 hours). The rats were then subcutaneously administered 10 mg/kg, 30 mg/kg or 100 mg/kg of carbamazepine (Compound B) with a 25% HPBCD vehicle or with a 25% HPBCD vehicle alone. Some test animals were not dosed (i.e., naïve). The rats were then placed in individual, bedding-free cages and allowed ad libitium access to pre-weighed food and water for two hours. The food and water were then removed and the food was reweighed. […] Data are represented as the means+S.E.M. % Gastric Emptying in 4 hours=(1−(gastric content/food intake))×100.
Male, Sprague-Dawley rats (weighing between 238-274 g each and 6 rats per test group) were fasted overnight (19 hours). The rats were then orally administered 30 mg/kg, 100 mg/kg or 300 mg/kg of carbamazepine (Compound B) with a 0.5% MC vehicle or with a 0.5% MC vehicle alone. The rats were then placed in individual, bedding-free cages and allowed ad libitium access to pre-weighed food and water for two hours. The food and water were then removed and the food was reweighed. […] Data are represented as the means+S.E.M. % Gastric Emptying in 4 hours=(1−(gastric content/food intake))×100.
Male, Sprague-Dawley rats (weighing between 235-276 g each and 4-6 rats per test group) were fasted overnight (19 hours).

For test [2], the system named is Sprague-Dawley rats. As to the kind of experiment: Gastrointestinal transit, charcoal meal assay. The conditions noted are these: for dosage level with significant effect on stomach weight / stomach weight: charcoal meal assay; for stomach weight: vs vehicle treated animals; for gastrointestinal transit (% small intestinal transit): charcoal meal, 60 minutes pretreatment, vs vehicle. The protocol:
Small intestinal transit was measured based on a known method which involved the oral administration of a charcoal meal (Gmerek et al. (1986). “Independent central and peripheral mediation of morphine-induced inhibition of gastrointestinal transit in rats.” J Pharmacol Exp Ther 236(1): 8-13). Rats were fasted with free access to water for 18 hours. Test compound or vehicle was dosed prior to oral administration of a charcoal slurry containing activated charcoal, flour and water in a ratio of 1:2:7.5 (10 ml/kg orally). One hour after receiving the charcoal slurry, rats were euthanized by CO2 asphyxiation. The stomach and GI tract was excised from each animal. Whole stomach weight was recorded and the length of the small intestine (cm) (stomach to cecum) and the distance (cm) to the leading edge of charcoal was measured. Small intestinal transit data are expressed as a percentage of the distance traveled (i.e. % small intestinal transit=(distance charcoal traveled)/(total length of small intestine (stomach to cecum)×100). Pretreatment times were determined on the basis of pharmacokinetic data (not shown) and were as follows: Compound A, 60 minutes, Compound C, 60 minutes; carbamazepine, 60 minutes. Morphine was administered with a pretreatment time of 30 mins based on previous experience.

The test system of test [3] is Sprague-Dawley rats. In words: Gastric secretion volume and pH in fasted rats. The following applies: lansoprazole 30 mg/kg orally, alone (Example 17). The protocol:
Gastric section and acidity was assessed by direct measurement in fasted animals (Melo et al. (2006). “Effect of acid secretion blockade on acute gastric mucosal lesions induced by Tityus serrulatus scorpion toxin in anaesthetized rats.” Toxicon 48(5): 543-549). Rats were fasted with free access to water for 24 hours on wire inserts without bedding. The next day, all rats were dosed orally with 0.5% MC (5 ml/kg) to remove any residual stomach contents and test compound or vehicle was administered. The animals were water deprived for 3 hours, anesthetized with isoflurane (5% in O2), and a laparotomy was conducted followed by tight ligation of the pylorus and cardia. After ligation, the stomach was removed and the rat was immediately euthanized by decapitation. The stomach was opened along the greater curvature and gastric fluid collected into Eppendorf tubes and centrifuged (5 min at 10×1000 g). pH was determined by pipetting gastric fluid directly onto an indicator stick (Whatman, Panpeha Plus, pH0-14). Data are represented as the mean volume and mean pH.
Male, Sprague-Dawley rats (weighing between 254-270 g each and 6 rats per test group) were fasted overnight (24 hours) on wire inserts without bedding. The rats were first orally dosed with 0.5% MC vehicle and then subcutaneously injected with 3 mg/kg or 10 mg/kg of Compound A with a 25% HPBCD vehicle or with a 25% HPBCD vehicle alone. The test animals were water deprived for 3 hours and then anesthetized with isoflurane and the pylorus and cardia were tightly ligated. The stomachs were then removed and the rats were euthanized. The gastric fluid was removed from the stomachs and collected in eppendorf tubes by cutting along the greatest curvature and spun in a centrifuge. Gastric secretion data were analyzed by a one-way ANOVA using a Bonferroni Multiple Comparison test, where *P<0.05 and **P<0.01 as compared to the appropriate vehicle. Data are represented as the means+S.E.M. PH data were analyzed by a one-way ANOVA using Dunnett's Multiple Comparison Test. Data are represented as the means+S.E.M.
This Example measured volume and pH of gastric secretion three hours post subcutaneous administration of 10 mg/kg of Compound A. The animals were water deprived during this time.

Setting [4] is: p.o. 30, 100, 300 mg/kg, 0.5% MC vehicle (Example 5).
Where [5] appears, read: s.c. 10, 30, 100 mg/kg, 25% HPBCD vehicle (Example 4).
Setting [6] is: comparison at equal or similar dosages, routes and vehicles.
Where [7] appears, read: p.o. 10 mg/kg and 30 mg/kg, 0.5% MC vehicle (Example 6).
[8] abbreviates: p.o. 100 mg/kg and 300 mg/kg, 0.5% MC vehicle (Example 7).
[9] abbreviates: p.o. 100 mg/kg, 0.5% MC vehicle (Example 6).
Setting [10] is: s.c. 10, 30, 100 mg/kg, 25% HPBCD vehicle (Example 6).
Setting [11] is: i.p. 10, 30, 100 mg/kg, 25% HPBCD vehicle (Example 8).

Structures are written as SMILES. “Also recorded” adds a separate entry of the source.

Regarding `NC(=O)N1c2ccccc2C=Cc2ccccc21` [Compound B, carbamazepine, reference compound], the “percent of gastric inhibition, oral 0.5% MC compared with subcutaneous 25% HPBCD” value in test [1] (equal dosage, Examples 4 and 5) is reported as “numerically more potent”. Also, in test [1] (setting [4]), the “% Gastric Emptying in 4 hours” value was “inhibits gastric emptying”, the food intake result is “reduces food intake” and the stomach weight result was “increases stomach weight”. Besides, the stomach weight result in test [1] (s.c. 100 mg/kg, 25% HPBCD vehicle (Example 4)) is given as “stomach weight increase”. Also, in test [1] (setting [5]), the “% Gastric Emptying in 4 hours” value is given as “inhibits the percent of gastric emptying” and the food intake result is “food intake decreased”. Also, in test [2], the “dosage level with significant effect on stomach weight” value is on record as 30 mg/kg, the stomach weight entry is given as “statistically significant increase in stomach weight” and the “gastrointestinal transit (% small intestinal transit)” value is “No statistically significant decrease in gastrointestinal transit; also recorded: decreasing trend”.
As for `NC(=O)[C@@H]1CC[C@H](c2ccc(OCc3ccccc3F)cc2)N1` [Compound C], the “gastric emptying inhibition potency compared between compounds” value in test [1] (setting [6]) is given as “least potent”. In addition, the “% Gastric Emptying in 4 hours” value in test [1] (setting [7]) was “did not affect”; in test [1] (setting [8]), “inhibits gastric emptying”; in test [1] (setting [9]) it was “inhibits the percentage of gastric emptying”; in test [1] (setting [10]), “did not inhibit the percentage of gastric emptying”. For the same compound, the food intake result in test [1] (setting [7]) is “reduced food intake”; in test [1] (setting [9]), “reduces food intake”; in test [1] (p.o. 10-300 mg/kg, 0.5% MC vehicle (Example 7)) it was “reduces food intake”; in test [1] (setting [10]), “decreased”. In addition, the stomach weight entry in test [1] (setting [7]) is given as “did not affect”; in test [1] (setting [8]) it was “increases stomach weight”; in test [1] (setting [9]) it was “increases stomach weight”; in test [1] (setting [10]), “decreased”; in test [2], “statistically significant increase in stomach weight”. Moreover, the “dosage level with significant effect on stomach weight” value in test [2] was found to be 100 mg/kg. Also, in test [2], the “gastrointestinal transit (% small intestinal transit)” value is on record as “No statistically significant decrease in gastrointestinal transit”.
Regarding `O=S(=O)(Nc1nncs1)c1cc(Cl)c(Oc2ccc(C(F)(F)F)cc2-c2ccnnc2)cc1F` [Compound D], the “gastric emptying inhibition potency compared between compounds” value in test [1] (setting [6]) is “greater gastric emptying inhibition potency than Compounds B and C”. Also, the stomach weight entry in test [1] (i.p. 10 mg/kg and 100 mg/kg, 25% HPBCD vehicle (Example 8)) was “increases stomach weight”. Also, in test [1] (setting [11]), the “% Gastric Emptying in 4 hours” value is recorded as “inhibits gastric emptying” and the food intake entry was “reduces food intake”.
On to `Cc1c(OCC(F)(F)F)ccnc1C[S+]([O-])c1nc2ccccc2[nH]1` (centres unmarked) [Lansoprazole, lansoprazole, reference compound], for which, in test [3], the “pH of gastric secretion” value is “increase the pH” and the “volume of gastric secretion” value is on record as “did not affect volume of gastric secretion”.
In the case of `NC1=N[C@H](O)[C@H]2[C@H]3O[C@]4(O)O[C@@H]([C@@H](O)[C@@]2(N1)[C@@H]4O)[C@]3(O)CO` [TTX, tetrodotoxin, reference compound], the “gastric emptying inhibition potency compared between compounds” value in test [1] (rat, in vivo) was “comparable to that achieved by 30 mg/kg of Compound A administered orally”. Also, in test [1] (rat, in vivo, sc), the “% Gastric Emptying in 4 hours” value is recorded as “inhibits gastric emptying; also recorded: statistically significant decrease in gastric emptying” and the food intake entry is listed as “reduces food intake; also recorded: dose dependent decrease in food intake”.
For `CN1CC[C@]23c4c5ccc(O)c4O[C@H]2[C@@H](O)C=C[C@H]3[C@H]1C5` [morphine, reference compound], in test [2] (rat, in vivo), the gastrointestinal transit result is given as “less than 35%” and the “stomach weight (average)” value was “over 7 g”.
With `COc1cc2nc(N3CCN(C(=O)C4CCCO4)CC3)nc(N)c2cc1OC` (centres unmarked) [terazosin, reference compound], the “% Gastric Emptying in 4 hours” value in test [1] (rat, in vivo) is on record as “Neither terazosin nor atenolol alone had a significant effect”.

Values taken from patent US10143696B2, “Methods and compositions for decreasing gastric emptying” (priority 2015, dated 2018).
